Measured values reported in ChEMBL document CHEMBL4364246, “Synthesis and biological evaluation of 5-aminoethyl benzophenanthridone derivatives as DNA topoisomerase IB inhibitors” (Eur J Med Chem, 2019).

Key:
[1] = biological target: T1, DNA topoisomerase 1 (Homo sapiens) (UniProt P11387); experiment: Inhibition of recombinant TOP1 (unknown origin) using 3'-[32P]-labeled 117 bp DNA oligonucleotide assessed as […] TOP1-mediated DNA cleavage incubated for 20 mins by PAGE analysis relative to 1 uM CPT
T1 sequence (whole entry): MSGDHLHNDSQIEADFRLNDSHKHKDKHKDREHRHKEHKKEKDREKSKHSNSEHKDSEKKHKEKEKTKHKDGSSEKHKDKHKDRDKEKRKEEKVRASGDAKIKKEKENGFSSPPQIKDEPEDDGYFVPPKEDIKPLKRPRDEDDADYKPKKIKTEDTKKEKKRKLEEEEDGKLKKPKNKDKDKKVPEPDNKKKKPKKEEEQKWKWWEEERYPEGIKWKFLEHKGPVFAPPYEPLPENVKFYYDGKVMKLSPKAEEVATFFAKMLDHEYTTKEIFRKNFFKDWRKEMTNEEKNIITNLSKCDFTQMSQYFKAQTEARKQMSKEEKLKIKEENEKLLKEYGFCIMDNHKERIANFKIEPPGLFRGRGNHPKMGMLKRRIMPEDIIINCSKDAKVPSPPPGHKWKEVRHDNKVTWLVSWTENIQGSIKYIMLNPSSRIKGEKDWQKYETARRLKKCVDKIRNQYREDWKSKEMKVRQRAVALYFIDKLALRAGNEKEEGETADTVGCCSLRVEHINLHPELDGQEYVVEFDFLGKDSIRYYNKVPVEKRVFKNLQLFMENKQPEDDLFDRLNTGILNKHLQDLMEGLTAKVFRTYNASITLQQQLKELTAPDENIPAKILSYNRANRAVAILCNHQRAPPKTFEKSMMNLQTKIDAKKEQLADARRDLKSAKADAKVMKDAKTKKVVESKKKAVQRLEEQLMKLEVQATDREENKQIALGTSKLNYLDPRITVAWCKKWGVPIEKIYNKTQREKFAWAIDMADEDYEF

[2] = biological target: T1, DNA topoisomerase 1 (Homo sapiens); experiment: Inhibition of recombinant TOP1 (unknown origin) using 3'-[32P]-labeled 117 bp DNA oligonucleotide assessed as TOP1-mediated DNA cleavage by measuring induction and stabilization of cleavage sites 17, 35 and 79 incubated for 20 mins by PAGE analysis
[3] = test system: HOP-62; experiment: Growth inhibition of human HOP62 cells incubated for 48 hrs by sulforhodamine B assay; format: functional; settings: HOP-62, 48 h
[4] = test system: HOP-92; experiment: Growth inhibition of human HOP92 cells incubated for 48 hrs by sulforhodamine B assay; format: functional; settings: HOP-92, 48 h
[5] = test system: NCI-H226; experiment: Growth inhibition of human NCI-H226 cells incubated for 48 hrs by sulforhodamine B assay; format: functional; settings: NCI-H226, 48 h
[6] = test system: NCI-H322M; experiment: Growth inhibition of human NCI-H322M cells incubated for 48 hrs by sulforhodamine B assay; format: functional
[7] = test system: NCI-H460; experiment: Growth inhibition of human NCI-H460 cells incubated for 48 hrs by sulforhodamine B assay; format: functional; settings: NCI-H460, 48 h
[8] = test system: SF-539; experiment: Growth inhibition of human SF539 cells incubated for 48 hrs by sulforhodamine B assay; format: functional; settings: SF-539, 48 h
[9] = test system: SNB-75; experiment: Growth inhibition of human SNB75 cells incubated for 48 hrs by sulforhodamine B assay; format: functional; settings: SNB-75, 48 h
[10] = test system: U-251; experiment: Growth inhibition of human U251 cells incubated for 48 hrs by sulforhodamine B assay; format: functional; settings: U-251, 48 h
[11] = test system: LOX IMVI; experiment: Growth inhibition of human LOXIMVI cells incubated for 48 hrs by sulforhodamine B assay; format: functional
[12] = test system: Malme-3M; experiment: Growth inhibition of human MALME-3M cells incubated for 48 hrs by sulforhodamine B assay; format: functional
[13] = test system: SK-MEL-2; experiment: Growth inhibition of human SK-MEL-2 cells incubated for 48 hrs by sulforhodamine B assay; format: functional; settings: SK-MEL-2, 48 h
[14] = test system: SK-MEL-28; experiment: Growth inhibition of human SK-MEL-28 cells incubated for 48 hrs by sulforhodamine B assay; format: functional; settings: SK-MEL-28, 48 h
[15] = test system: SK-MEL-5; experiment: Growth inhibition of human SK-MEL-5 cells incubated for 48 hrs by sulforhodamine B assay; format: functional; settings: SK-MEL-5, 48 h
[16] = test system: UACC-257; experiment: Growth inhibition of human UACC257 cells incubated for 48 hrs by sulforhodamine B assay; format: functional; settings: UACC-257, 48 h
[17] = test system: COLO 205; experiment: Growth inhibition of human COLO205 cells incubated for 48 hrs by sulforhodamine B assay; format: functional; settings: COLO 205, 48 h
[18] = test system: HCC 2998; experiment: Growth inhibition of human HCC2998 cells incubated for 48 hrs by sulforhodamine B assay; format: functional; settings: HCC 2998, 48 h
[19] = test system: HCT-15; experiment: Growth inhibition of human HCT15 cells incubated for 48 hrs by sulforhodamine B assay; format: functional; settings: HCT-15, 48 h
[20] = test system: HT-29; experiment: Growth inhibition of human HT-29 cells incubated for 48 hrs by sulforhodamine B assay; format: functional; settings: HT-29, 48 h
[21] = test system: KM12; experiment: Growth inhibition of human KM12 cells incubated for 48 hrs by sulforhodamine B assay; format: functional; settings: KM12, 48 h
[22] = test system: 786-0; experiment: Growth inhibition of human 786-0 cells incubated for 48 hrs by sulforhodamine B assay; format: functional; settings: 786-0, 48 h
[23] = test system: CAKI-1; experiment: Growth inhibition of human Caki1 cells incubated for 48 hrs by sulforhodamine B assay; format: functional; settings: CAKI-1, 48 h
[24] = test system: RXF 393; experiment: Growth inhibition of human RXF393 cells incubated for 48 hrs by sulforhodamine B assay; format: functional; settings: RXF 393, 48 h
[25] = test system: SN12C; experiment: Growth inhibition of human SN12C cells incubated for 48 hrs by sulforhodamine B assay; format: functional
[26] = test system: TK-10; experiment: Growth inhibition of human TK10 cells incubated for 48 hrs by sulforhodamine B assay; format: functional; settings: TK-10, 48 h
[27] = test system: MCF7; experiment: Growth inhibition of human MCF7 cells incubated for 48 hrs by sulforhodamine B assay; format: functional; settings: MCF7, 48 h
[28] = test system: MDA-MB-231; experiment: Growth inhibition of human MDA-MB-231 cells incubated for 48 hrs by sulforhodamine B assay; format: functional; settings: MDA-MB-231, 48 h
[29] = test system: T47D; experiment: Growth inhibition of human T47D cells incubated for 48 hrs by sulforhodamine B assay; format: functional
[30] = test system: MDA-MB-468; experiment: Growth inhibition of human MDA-MB-468 cells incubated for 48 hrs by sulforhodamine B assay; format: functional; settings: MDA-MB-468, 48 h
[31] = test system: OVCAR-4; experiment: Growth inhibition of human OVCAR4 cells incubated for 48 hrs by sulforhodamine B assay; format: functional; settings: OVCAR-4, 48 h
[32] = test system: OVCAR-8; experiment: Growth inhibition of human OVCAR8 cells incubated for 48 hrs by sulforhodamine B assay; format: functional; settings: OVCAR-8, 48 h
[33] = test system: SK-OV-3; experiment: Growth inhibition of human SKOV3 cells incubated for 48 hrs by sulforhodamine B assay; format: functional; settings: SK-OV-3, 48 h
[34] = test system: DU-145; experiment: Growth inhibition of human DU145 cells incubated for 48 hrs by sulforhodamine B assay; format: functional; settings: DU-145, 48 h
[35] = test system: A549; experiment: cells; settings: Homo sapiens, A549, 72 h

Row | SMILES | inhibition [1] [%] | Activity [2] | GI50 [3] [nM] | GI50 [4] [nM] | GI50 [5] [nM] | GI50 [6] [nM] | GI50 [7] [nM] | GI50 [8] [nM] | GI50 [9] [nM] | GI50 [10] [nM] | GI50 [11] [nM] | GI50 [12] [nM] | GI50 [13] [nM] | GI50 [14] [nM] | GI50 [15] [nM] | GI50 [16] [nM] | GI50 [17] [nM] | GI50 [18] [nM] | GI50 [19] [nM] | GI50 [20] [nM] | also measured
1 | CNCCn1c(=O)c2cc(OC)c(OC)cc2c2ccc3cc4c(cc3c21)OCO4 | 75 to 95 | Dose-dependent effect | 43.9 | 184 | 172 | 147 | 21.2 | 124 | 88.5 | 39.4 | 38.9 | 174 | 393 | 573 | 90.9 | 122 | 60.5 | 156 | 116 | 50.8 | GI50 [21]: 238 nM; GI50 [22]: 70.3 nM; GI50 [23]: 64.4 nM; GI50 [24]: 160 nM; GI50 [25]: 171 nM; GI50 [26]: 316 nM; GI50 [27]: 29.2 nM; GI50 [28]: 362 nM; GI50 [29]: 75.7 nM; GI50 [30]: 59.9 nM; GI50 [31]: 154 nM; GI50 [32]: 132 nM; GI50 [33]: 157 nM; GI50 [34]: 130 nM; GI50 [35]: 970 nM
2 | COc1cc2c(=O)n(CCN)c3c4cc5c(cc4ccc3c2cc1OC)OCO5 | 50 to 75 | Dose-dependent effect | 399 | 3560 | 1340 | 990 | 230 | 1060 | 596 | 260 | 246 | 613 | 3010 | 3050 | 614 | 1900 | 290 | 1020 | 420 | 168 | GI50 [21]: 1100 nM; GI50 [22]: 464 nM; GI50 [23]: 295 nM; GI50 [24]: 929 nM; GI50 [25]: 739 nM; GI50 [26]: 1350 nM; GI50 [27]: 164 nM; GI50 [28]: 1280 nM; GI50 [29]: 368 nM; GI50 [30]: 157 nM; GI50 [31]: 782 nM; GI50 [32]: 930 nM; GI50 [33]: 1240 nM; GI50 [34]: 527 nM; GI50 [35]: 980 nM
